One assay relates to HKC migration. As to the kind of experiment: in vitro pro-motility (cell migration) activity of hsp90α and its fragments, FIG. 1. The class given is cell-based, human. Conditions: for activity on cell migration: relative to full length hsp90α. The method, then: FIG. 1 contains a list of amino acid sequences that were tested for in vitro efficacy as compared to a control medium. The amino acid sequences are identified in FIG. 1 as follows:
Therefore, hsp90α promotes HKC migration mainly through its middle and the carboxyl domains, consistent with their surface location in hsp90α.
However, as can also be seen in FIG. 1, not all of the full hsp90α protein or the entire middle domain and charged portion of hsp90α protein is necessary to promote wound healing. […] Thus, the unnecessary portions of hsp90α need not be included in a composition for wound healing, thereby allowing a composition to be more efficacious per weight of active wound healing agent. Moreover, instead of relying on complicated isolation and extraction methods to obtain the hsp90α protein or the middle domain plus charged portion of hsp90α protein, more inexpensive and conventional methods of synthesis may be employed to obtain the lower chain length polypeptide chains.

Assay [1] relates to 1 cm×1 cm full-thickness excision wound on the back of nude mice. In words: full-thickness excision skin wound healing in nude mice, topical treatment. Format: in vivo. Conditions: for wound sizes: n=10 per group. As to the method: 100 μg F-3 fragments in 100 μl of 10% Carboxymethylcellulose cream and the cream alone was topically applied to the 1 cm×1 cm wound on the back of nude mice daily for 5 days, and wounds were analyzed every two days.
The pharmaceutical 100 μl of 10% carboxymethylcellulose cream (Sterile) is mixed in and the 1 cm×1 cm wound on the back of a nude mouse is topically covered. Following this treatment, the wound is covered with a few antibiotics and bandi and the bandi are fixed by rolling the mouse with coban. The F-3 compound mixture is then added every day for up to five days and the wound is analyzed every two days.
To prepare mice for topical treatment of F-3, 1.0-cm×1.0-cm full-thickness excision wounds were made by lifting the skin with forceps and removing full thickness skin with a pair of scissors on the mid-back of 8 to 10 week old mice. The wounds were topically covered by 100 μl 10% carboxymethylcellulose either without (as a control) or with 300 μg recombinant F-3 compound. The wound area was then covered with Band-Aid and Coban, a self-adherent wrap, to prevent desiccation. Only one dose of F-3 compounds was administered to the wound. To measure the wound area, standardized digital photographs were taken of the wounds at 4, 6, 8, 11, 13 and 15 days post-wounding and the open wound areas were determined with an image analyzer (AlphaEase FC version 4.1.0, Alpha Innotech Corporation). Percentage of wound area was defined by comparing areas of healing wounds to those of the original wounds. The Student T test was used for the statistical analysis. All animal studies were conducted using protocols approved by the University of Southern California Institutional Animal Use Committee.
A 1.0-cm^2 (lcm×lcm) square full-thickness excision wound was made on the mid-back of 8 to 10 week old athymic nude mice and the pharmaceutical composition of F-3 was applied topically daily for 5 days (n=10 mice per group). (A) Representative day 4, 6, 8, 11, 13 and 15 wounds are shown. […] (B) Mean±SD wound size measurements at day 4, 6, 8, 11, 13 and 15 post-wounding (n=10 mice for each group). […]

Consider three substances from patent US8455443B2, “Methods of use of skin wound healing compositions” (University of Southern California, priority 2009, dated 2013).

As for “EEKEDKEEEKEKEEKESEDKPEIEDVGSDEEEEKKDGDKKKKKKIKEKYIDQEE (listed as Homo sapiens) [F-5, hsp90α fragment having 54 amino acid units from amino acid number 236 to 289]”, the “activity on cell migration” value with HKC migration is about 100%.

In the case of “F-3: fragment of hsp90α consisting of 115 amino acid units, from amino acid number 236 to 350”, in the assay on HKC migration, the “activity on cell migration” value was about 100%. The “closure of the wounds” value in assay [1] (100 μg in 100 μl 10% carboxymethylcellulose cream, topical, daily for 5 days, day 4, 6, 8, 11, 13, 15, vs cream control, FIGS. 2A-2F) is recorded as “significantly accelerated closure of the wounds”. Further, the wound sizes result in assay [1] (F-3 vs 40 μg PDGF-BB (Regenerex) for 5 days, day 0, 5, 7, 10, 12, FIGS. 3A-3E) is on record as “significantly reduced”; in assay [1] (athymic nude mice, topical daily for 5 days, day 4, 6, 8, 11, 13, 15, vs cream alone), “significantly reduced”.

Regarding “WT hsp90α: the full-length (WT) hsp90α protein”, in the assay with HKC migration (in comparison to the control medium), the pro-motility activity result is “remarkable pro-motility activity”. For the same substance, the “activity on cell migration” value in the assay on HKC migration is given as 100%.
